# In PMC7180456, “Multitarget Anticancer Agents Based on Histone Deacetylase and Protein Kinase CK2 Inhibitors” (Molecules, 2020):
# Read-outs that look alike come from different tables or passages of the source.
# Tests used:
# [1] = system: HL-60/wt cells; experiment: Depolarization of mitochondria, JC-1 assay, FACS; assay type: cell-based, human; settings: dose not stated in the sentence (10 µM and 30 µM tested), 24 h
# [2] = system: HCT-116 colon carcinoma cells; experiment: Cytotoxicity, trypan blue exclusion assay, 24 h; settings: Homo sapiens
# Experimental: (§4) Walter Berger, Institute of Cancer Research, Vienna Medical University. Human embryonal kidney cells of HEK293 line were obtained from cell culture collection of R.E. Kavetsky Institute of Experimental Pathology, Oncology and Radiobiology, National Academy of Sciences of Ukraine (Kyiv, Ukraine).
# (§5) Cells were seeded (5 × 10^5/mL for leukemia cells and 1 × 10^5/mL for carcinoma cells) into 24-well tissue culture plates (Greiner Bio-one, Frickenhausen, Germany) and were permitted to adhere and grow for 24 h before the experiment. Short-term (24 h) cytotoxic effect of antitumor drugs was studied under the Evolution 300 Trino microscope (Delta Optical, Nowe Osiny, Poland) after cell staining with trypan blue dye (0.1%).
# (§6) Final concentration of DMSO in cell culture was 0.5% or less.
# (§7) All experiments were performed in triplicate and repeated three times. Statistical analysis of data was conducted in GraphPad Prism 7.0 Software (GraphPad Software, Inc.) using Student’s t test. Statistical significance was set at P ≤ 0.05. Evaluation of LC50 values of each compound was done by built-in functions of GraphPad Prism (non-linear regression, curve fit, [Inhibitor] vs. normalized response - Variable slope).
# [3] = system: breast adenocarcinoma cells of MCF-7 line; experiment: Cytotoxicity, trypan blue exclusion assay, 24 h; settings: Homo sapiens
# Experimental: as §4, §5, §6, §7
# [4] = system: human tumor and pseudonormal cell lines; experiment: Cytotoxicity, trypan blue assay, range over the cell lines tested; assay type: cell-based; settings: 24 h, read-out: LC50 range depending on cell line
# Excerpt: (§1) Statistical significance was set at P ≤ 0.05.
# [5] = target: T1, HDAC6 (Homo sapiens, UniProt Q9UBN7); experiment: HDAC6 inhibition, fluorometric method (Enzo Fluorometric Drug Discovery Assay Kit); assay type: biochemical; settings: read-out: Inhibitory activity IC50 on HDAC6
# T1 construct: purchased Enzo Life Sciences, Inc
# T1 sequence (Q9UBN7 1-1215): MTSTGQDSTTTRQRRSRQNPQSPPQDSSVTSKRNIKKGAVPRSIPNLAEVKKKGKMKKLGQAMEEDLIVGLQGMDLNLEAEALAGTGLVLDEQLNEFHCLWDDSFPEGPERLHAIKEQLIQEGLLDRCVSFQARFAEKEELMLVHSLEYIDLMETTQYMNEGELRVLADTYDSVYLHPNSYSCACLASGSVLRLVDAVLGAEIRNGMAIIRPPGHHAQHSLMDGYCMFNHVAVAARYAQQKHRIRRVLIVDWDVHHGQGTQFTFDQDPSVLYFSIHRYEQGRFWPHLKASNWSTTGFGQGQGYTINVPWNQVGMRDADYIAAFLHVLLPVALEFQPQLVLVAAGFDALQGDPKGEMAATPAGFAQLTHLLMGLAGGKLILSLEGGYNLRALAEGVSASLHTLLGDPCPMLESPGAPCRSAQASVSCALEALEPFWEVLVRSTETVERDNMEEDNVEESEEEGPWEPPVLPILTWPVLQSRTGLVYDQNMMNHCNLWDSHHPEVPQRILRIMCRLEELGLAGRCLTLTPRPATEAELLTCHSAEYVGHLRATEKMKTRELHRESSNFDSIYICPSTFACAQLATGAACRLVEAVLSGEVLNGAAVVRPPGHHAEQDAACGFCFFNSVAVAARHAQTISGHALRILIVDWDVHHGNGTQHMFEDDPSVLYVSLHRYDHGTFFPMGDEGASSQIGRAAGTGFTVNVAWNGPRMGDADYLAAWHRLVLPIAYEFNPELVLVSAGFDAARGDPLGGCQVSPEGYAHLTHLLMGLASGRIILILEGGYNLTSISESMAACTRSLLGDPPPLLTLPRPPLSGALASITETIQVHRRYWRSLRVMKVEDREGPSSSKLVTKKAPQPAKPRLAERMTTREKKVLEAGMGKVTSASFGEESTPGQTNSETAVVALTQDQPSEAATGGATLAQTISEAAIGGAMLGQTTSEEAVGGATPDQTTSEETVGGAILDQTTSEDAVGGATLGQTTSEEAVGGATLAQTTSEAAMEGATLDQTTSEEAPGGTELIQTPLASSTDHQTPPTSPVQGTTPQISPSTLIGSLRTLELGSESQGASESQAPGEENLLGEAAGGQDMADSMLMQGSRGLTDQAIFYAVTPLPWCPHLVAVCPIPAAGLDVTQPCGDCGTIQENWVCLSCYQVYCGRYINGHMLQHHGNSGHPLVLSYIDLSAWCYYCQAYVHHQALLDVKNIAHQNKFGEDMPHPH
# Experimental: For this reason, we analyzed the activity of 15 and 19, together with other compounds from the alkyl and triazole series in HDAC6, tested using a fluorometric method (Table 1).
# (§2) 15 µL of HDAC1 (0.4 µg/well) or HDAC6 (0.5 µg/well) were incubated at 37 °C for 30 minutes with 10 µL of inhibitor diluted in 5% DMSO and 25 µL of fluorogenic substrate (0.05 µL/well of 5 mM solution). Reactions were stopped with the developer and trichostatin A, diluted in buffer without BSA, and the plate was incubated at 30 °C for 45 min, followed by measuring the fluorescence (Ex. 360 nm, Em. 450 nm, Fluoroskan, Thermo Scientific).
# [6] = Cytotoxicity, trypan blue exclusion assay, 24 h (pseudonormal cells); settings: human, HEK293 embryonic kidney cells (pseudonormal)
# Experimental: as §4, §5, §6, §7
# [7] = target: T2, human recombinant HDAC1 (Homo sapiens, UniProt Q13547); experiment: HDAC1 inhibition, fluorometric method (Enzo Fluorometric Drug Discovery Assay Kit); assay type: biochemical; settings: read-out: Inhibitory activity IC50 on HDAC1
# T2 construct: purchased Enzo Life Sciences, Inc
# Experimental: The inhibitory activities of the synthesized compounds were determined against CK2 and HDAC1 and the IC50 values are collected in Table 1. The activity towards human recombinant HDAC1 was tested using a fluorometric method. CK2 inhibitory activity was determined by a radiometric method, using a short peptide ([…]) as a substrate.
# as §2
# [8] = system: Jurkat T-leukemia cells; experiment: Cytotoxicity, trypan blue exclusion assay, 24 h; settings: Homo sapiens
# Experimental: as §4, §5, §6, §7
# [9] = system: HL-60/adr (doxorubicin-resistant, MRP-1 overexpression); experiment: Cytotoxicity, trypan blue exclusion assay, 24 h; assay type: cell-based; settings: Homo sapiens, HL60/ADR
# Excerpt: (§3) Taking into consideration the high abundance of CK2 kinase in leukemia and lymphomas, the ability of selected CK2-HDAC dual inhibitors to circumvent MDR was investigated in human leukemia cells of HL-60 line and its doxorubicin-resistant (HL-60/adr, MRP-1 overexpression) and vincristine-resistant (HL-60/vinc, P-gp overexpression) sublines.
# as §1
# [10] = system: leukemia cells of HL-60 line; experiment: Cytotoxicity, trypan blue exclusion assay, 24 h; assay type: cell-based; settings: Homo sapiens
# Excerpt: as §3, §1
# [11] = system: HL-60/vinc (vincristine-resistant, P-gp overexpression); experiment: Cytotoxicity, trypan blue exclusion assay, 24 h; assay type: cell-based; settings: for CC50: Homo sapiens, HL60/vinc
# Excerpt: as §3, §1
# [12] = target: HDAC-6; settings: Figure 4; read-out: Ki, HDAC-6 inhibitor; cited from earlier work
# [13] = system: HDAC; parameters: method as in PMID 29733427; settings: Figure 2; read-out: IC50 of FDA-approved HDAC inhibitors; cited from earlier work
# [14] = system: HL-60/adr line; parameters: method as in PMID 17904109; settings: cited from earlier work
# [15] = system: HL-60/vinc line; parameters: method as in PMID 17904109; settings: cited from earlier work
# T2 sequence (Q13547 whole entry): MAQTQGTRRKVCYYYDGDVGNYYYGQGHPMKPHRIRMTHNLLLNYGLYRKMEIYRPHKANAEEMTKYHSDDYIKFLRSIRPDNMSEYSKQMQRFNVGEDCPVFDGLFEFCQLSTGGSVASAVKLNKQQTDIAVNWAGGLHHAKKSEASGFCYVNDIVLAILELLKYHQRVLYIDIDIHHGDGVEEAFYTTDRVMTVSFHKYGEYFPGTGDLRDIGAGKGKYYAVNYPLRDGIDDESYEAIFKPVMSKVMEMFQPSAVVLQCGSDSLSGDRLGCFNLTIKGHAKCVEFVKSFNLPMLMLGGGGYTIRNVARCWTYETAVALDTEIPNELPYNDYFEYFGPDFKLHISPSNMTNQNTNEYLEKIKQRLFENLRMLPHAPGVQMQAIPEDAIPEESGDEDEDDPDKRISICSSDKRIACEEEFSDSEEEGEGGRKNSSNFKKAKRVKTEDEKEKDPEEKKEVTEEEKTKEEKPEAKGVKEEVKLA
smiles,measurement,setting,value
"CN(C)c1nc2c(Br)c(Br)c(Br)c(Br)c2n1CCCCCCCC(=O)NO [Compound 11d, N-Hydroxy-8-(4,5,6,7-tetrabromo-2-(dimethylamino)-1H-benzo[d]imidazol-1-yl)octanamide]",level of depolarized mitochondria,[1],53.23%
same,CC50,"[2]; HCT-116, 24 h, read-out: LC50 Values of Compounds for Cell Line, HCT-116",3.1 ± 0.37 µM
same,CC50,"[2]; HCT-116, read-out: LC50 values of compounds for cell line, HCT-116",16.9 µM
same,CC50,"[3]; MCF7, 24 h, read-out: LC50 Values of Compounds for Cell Line, MCF-7",9.02 ± 0.9 µM
same,CC50,"[3]; MCF7, read-out: LC50 values of compounds for cell line, MCF-7",27.8 µM
same,CC50,[4],3 to 8 µM
same,IC50,[5],8.98 µM
same,CC50 at 24 h,"[6]; LC50 Values of Compounds for Cell Line, HEK293, Table 2, trypan blue, 24 h, M ± SD",8.41 ± 1.26 µM
same,CC50 at 24 h,"[6]; LC50 values of compounds for cell line, HEK293, supplement Table 4S, M±SD",> 30 µM
same,IC50,[7],13.7 µM
same,CC50,"[8]; 24 h, read-out: LC50 Values of Compounds for Cell Line, Jurkat",5.3 ± 0.75 µM
same,CC50,"[8]; read-out: LC50 values of compounds for cell line, Jurkat",14.2 µM
same,CC50,"[9]; Table 2, trypan blue, 24 h, M ± SD, read-out: LC50 Values of Compounds for Cell Line, HL-60/adr",8.4 ± 1.21 µM
same,CC50,"[9]; supplement Table 4S, M±SD, read-out: LC50 values of compounds for cell line, HL-60/adr",15.1 µM
same,CC50,"[10]; Table 2, trypan blue, 24 h, M ± SD, read-out: LC50 Values of Compounds for Cell Line, HL-60",4.69 ± 0.54 µM
same,CC50,"[10]; supplement Table 4S, M±SD, read-out: LC50 values of compounds for cell line, HL-60",29.7 µM
same,change of activity towards P-gp overexpressing HL-60/vinc cells versus HL-60/wt,[11]; 24 h,increased twofold
same,CC50,"[11]; Table 2, trypan blue, 24 h, M ± SD, read-out: LC50 Values of Compounds for Cell Line, HL-60/vinc",2.32 ± 1.06 µM
same,CC50,"[11]; supplement Table 4S, M±SD, read-out: LC50 values of compounds for cell line, HL-60/vinc",> 30 µM
CN1C(=O)C2Cc3c(c4ccccc4n3Cc3ccc(C(=O)NO)cc3)C(C2)C1=O (stereo not drawn) [Marbostat-100],Ki,[12],0.0007 µM
Cc1[nH]c2ccccc2c1CCNCc1ccc(/C=C/C(=O)NO)cc1 [Panobinostat],IC50,[13],0.005 to 0.02 µM
C/C=C1\NC(=O)[C@H]2CSSCC/C=C/[C@H](CC(=O)N[C@H](C(C)C)C(=O)N2)OC(=O)[C@H](C(C)C)NC1=O [Romidepsin],IC50,[13],0.036 µM
COc1cccc2c1C(=O)c1c(O)c3c(c(O)c1C2=O)C[C@@](O)(C(=O)CO)C[C@@H]3O[C@H]1C[C@H](N)[C@H](O)[C@H](C)O1 [doxorubicin],resistance of the MDR cell model to the drug,[14],80 fold
same,resistance of the MDR cell model to the drug,[15],140 fold
